In patent US20140227208A1, “COSMETIC COMPOSITIONS CONTAINING SUBSTITUTED AZOLE AND METHODS FOR ALLEVIATING MECHANICALLY-INDUCED SKIN INFLAMMATION” (The Procter & Gamble Company, priority 2013, published 2014):
Read-outs that look alike come from different tables or passages of the source. Each block holds one compound with its values, some of them ahead of it.

Columns and labels:
CYP3A4 = CYP3A4 (Homo sapiens, UniProt P08684); experiment: In vitro CYP/CYP3A4 inhibition assay (P450-GLO Assay kit, Promega)
From the text: The metabolism of retinoic acid and vitamin D in the skin is incompletely understood, but there is evidence for the involvement of CYP26A1, CYP3A4 and CYP2C8 in catalyzing the 4-hydroxylation of all-trans RA to 4-hydroxy-RA. It is believed, without being limited by theory, that CYP3A4 may be particularly important for ATRA metabolism in the skin. This is because CYP3A4 is expressed in skin, involved in RA metabolism, a CYP with one of the broadest substrate specificities of all of the known CYPs and available as a human recombinant protein in a commercial kit. Thus, a commercially available CYP3A4 assay was used as a surrogate to predict RAMBA potential in the skin.
The commercially available P450-GLO™ Assay kit (Promega Corporation, Madison Wis.) was used to screen various compounds for potential CYP activity, specifically CYP3A4A inhibition activity. CYP3A4A is thought to be among the primary CYP isoforms responsible for retinoic acid metabolism in the skin.
The commercially available P450-GLO™ Assay kit (Promega Corporation, Madison Wis.) was used to screen various compounds for potential CYP activity, specifically CYP3A4A inhibition activity. CYP3A4A is thought to be one of the primary CYP isoforms responsible for retinoic acid metabolism in the skin.

[1] = tested on: ATRA 4-hydroxylase activity (CYP) of pig liver microsomes; experiment: In vitro ATRA 4-hydroxylase (CYP) inhibition assay using pig liver microsomes; settings: for IC50: 90 min
From the text: Cytochrome P450 is a large and diverse group of enzymes that catalyze the oxidation of organic substances. […] Applicant evaluated the potential RAMBA activity of several azoles using pig liver microsomes, a rich source of CYP activity, comprising many different CYP 450 isoforms. […] As understanding in this area has progressed, a more specific CYP inhibition assay can be used to provide better predictivity of activity in human skin. Nevertheless, this assay may still be used as a general predictor of overall CYP activity.
Microsomal preparation: One lobe of fresh pig liver was obtained at the time of slaughter from a food-processing company and immediately placed in ice cold 15 mM KH2PO4/250 mM sucrose (pH 7.4) and kept on ice during transportation. A 10 g sample of liver was minced and homogenized in 30 mls of homogenization buffer (15 mM KH2PO4/250 mM sucrose) using a Tekmar homoginizer by pulsing 3 times 20 second pulses. […] The remaining pig liver was cut into 10-g pieces and wrapped in aluminum foil and stored at −80° C. The homogenates from the 8 samples were pooled and centrifuged at 13,000×g for 20 minutes at 4° C. to remove crude debris and the supernatant was further centrifuged at 100,000×g for 70 minutes at 4° C. The microsomal pellets were resuspended into 50 mls of 150 mM KH2PO4/1 mM DTT (pH 7.4) and 1 mL aliquots were stored at −80° C. In vitro 4-hydroxylase activity assay: All procedures were carried out under minimal light in order to prevent degradation of the retinoid samples. The ATRA 4-hydroxylase assay can be described briefly as follows: 100-150 μg of pig liver microsomal protein in 150 mM KH2PO4 was incubated at 37° C. in the presence of radiolabeled ATRA and 5 mM NADPH for 90 min. The final ATRA concentration was 1 μM, as a combination of [20-Methyl-^3H]ATRA and unlabeled ATRA. Initially radiolabeled ATRA was used to assist in validating the method. Once retention times of retinoid metabolites were identified unlabeled ATRA was used for screening. Compounds tested as possible competitive substrates were added to the assay 10 min prior to the addition of ATRA. Ethanol, containing 0.1% butylated hydroxytoluene (BHT) as an antioxidant, was used to stop the reactions. For recovery of ATRA the pH of reactions were adjusted to 3.0 before extraction with 0.1N HCl. Retinoids were extracted from the protein aqueous phase with 4 mls hexane, 1 ml 100 μg/ml BHT in water (pH 3). An additional 4 mls of hexane (pH 3) was used for a second extraction. The organic extractions were pooled, evaporated to dryness using a speed vac, and resuspended in 62.5 μl acetonitrile containing 1 mg/ml BHT. Samples were analyzed by HPLC. […] Mobile phases used for gradient elution of retinoids were those of Duell et al., J. Clin. Invest. […] Mobile phase A was acetonitrile:0.02 M ammonium acetate:acetic acid (1:1:0.01) and mobile phase B was acetonitrile:0.2M ammonium acetate;acetic acid (19:1:0.008). […] Because of the sensitivity limitations of the β-RAM spectrometer, it was not used to quantitate peak areas but rather to confirm ATRA and ATRA 4-hydroxylase activity. Calculated peaks areas (using Millenium software—Waters Corp.) of ATRA and ATRA metabolites were used to quantify relative activity levels.

[2] = tested on: mechanically-induced skin inflammation (shaving); experiment: Method of treatment: shaving cream and leave-on skin cream applied to facial and neck regions; format: in vivo, human; settings: 0.55% by weight in shaving cream before and leave-on cream after shaving, topical, 8 weeks
From the text: A test subject topically applies a shaving cream composition comprising 0.55% 1-phenylimidazole, by weight in a vehicle, to the facial and neck regions prior to shaving. A leave-on skin cream comprising 0.55% 1-phenylimidazole, by weight in a vehicle, is applied to the same facial and neck regions after shaving.

[3] = IC50 (uM), CYP3A4 inhibition, P450-GLO Assay kit, human recombinant CYP3A4
[4] = read-out: IC50 (μM), in vitro 4-hydroxylase inhibition assay, pig liver microsomes, 1 μM ATRA, 5 mM NADPH, 37° C.
[5] = P450-GLO Assay kit, human recombinant CYP3A4
[6] = read-out: IC50 (uM), CYP3A4 inhibition, P450-GLO Assay kit, human recombinant CYP3A4

Sequence of CYP3A4 (P08684 whole entry): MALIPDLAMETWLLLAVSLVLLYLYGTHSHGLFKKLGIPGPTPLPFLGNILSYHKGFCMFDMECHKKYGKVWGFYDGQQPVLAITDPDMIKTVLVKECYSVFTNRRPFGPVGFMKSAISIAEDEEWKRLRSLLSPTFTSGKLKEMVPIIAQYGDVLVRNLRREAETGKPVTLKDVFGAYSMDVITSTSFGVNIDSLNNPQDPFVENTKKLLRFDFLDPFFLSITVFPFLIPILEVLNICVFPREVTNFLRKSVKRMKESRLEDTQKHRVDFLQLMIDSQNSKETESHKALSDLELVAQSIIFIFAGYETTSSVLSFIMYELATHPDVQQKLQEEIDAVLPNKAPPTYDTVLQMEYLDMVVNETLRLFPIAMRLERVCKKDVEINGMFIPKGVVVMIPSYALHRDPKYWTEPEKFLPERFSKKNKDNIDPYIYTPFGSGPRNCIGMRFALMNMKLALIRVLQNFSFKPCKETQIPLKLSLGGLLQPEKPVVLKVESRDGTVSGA

Compound: c1ccc(Cn2ccnc2)cc1 [1-benzylimidazole]
IC50 [1, 4]: 77.5 µM

Compound: c1ccc(-n2ccnc2)cc1 [1-phenylimidazole]
CYP inhibitory activity (in words), 4-hydroxylase assay ([1]; pig liver microsomes): IC50 values in the same range as climbazole | IC50 [1, 4]: 52.5 µM | inhibitory activity in the CYP3A4 assay (in words) (CYP3A4; P450-GLO Assay kit): showed inhibitory activity | Hit / no hit for inhibition of CYP3A4 (CYP3A4; [5]): Hit | IC50 (CYP3A4; human, recombinant enzyme): 1 µM | facial and neck skin inflammation noted by the subject [2]: significantly less inflamed

Compound: CCc1nc(C)c[nH]1 [2-Ethyl-4-methylimidazole]
IC50 (CYP3A4; [3]): > 10 µM

Compound: c1ccc(-c2ncc[nH]2)cc1 [2-phenylimidazole]
CYP inhibitory activity (in words), 4-hydroxylase assay ([1]; pig liver microsomes): lacked any significant inhibitory activity | IC50 [1, 4]: > 500 µM | IC50 (CYP3A4): > 10 µM | inhibitory activity in the CYP3A4 assay (in words) (CYP3A4): did not

Compound: c1ccc(-c2c[nH]cn2)cc1 [4-phenylimidazole]
CYP inhibitory activity (in words), 4-hydroxylase assay ([1]; pig liver microsomes): IC50 values in the same range as climbazole

Compound: Clc1ncnc2[nH]cnc12 [6-Chloropurine]
IC50 (CYP3A4; [3]): > 10 µM

Compound: Nc1nc[nH]n1 [Amitrol]
IC50 (CYP3A4): > 10 µM

Compound: c1coc(-c2nc3ccccc3[nH]2)c1 [Fuberidazole]
IC50 (CYP3A4): > 10 µM | Hit / no hit for inhibition of CYP3A4 (CYP3A4; human, recombinant enzyme): no hit >10 uM (key: hit: strong inhibition (IC50 value<10 μM); no hit: weak/no inhibition (IC50 value>10 μM))

Compound: Cc1cccc(C)c1N(Cn1cccn1)C(=O)CCl [Metazachlor]
IC50 (CYP3A4): > 10 µM | Hit / no hit for inhibition of CYP3A4 (CYP3A4; human, recombinant enzyme): no hit >10UM (key: hit: strong inhibition (IC50 value<10 μM); no hit: weak/no inhibition (IC50 value>10 μM))

Compound: Cc1ccc2cc3c(ccc4ccccc43)c3c2c1CC3 [Methylcholanthrene]
Hit / no hit for inhibition of CYP3A4 (CYP3A4; [5]): Near Hit

Compound: CCc1cccc(C)c1N(C(=O)CCl)C(C)COC (centres unmarked) [Metolachlor]
IC50 (CYP3A4): > 10 µM | Hit / no hit for inhibition of CYP3A4 (CYP3A4; [5]): no hit (weak/no inhibition (IC50 value>10 μM))

Compound: Clc1ccc(COC(Cn2ccnc2)c2ccc(Cl)cc2Cl)c(Cl)c1 (centres unmarked) [Miconazole]
Hit / no hit for inhibition of CYP3A4 (CYP3A4; human, recombinant enzyme): Hit 5 uM

Compound: Benomyl
Hit / no hit for inhibition of CYP3A4 (CYP3A4; [5]): no hit (weak/no inhibition (IC50 value>10 μM)) | IC50 (CYP3A4; [6]): > 10 µM

Compound: Glutamylamidoethyl imidazole
Hit / no hit for inhibition of CYP3A4 (CYP3A4; [5]): no hit (weak/no inhibition (IC50 value>10 μM)) | IC50 (CYP3A4; [6]): > 10 µM

Compound: Piperine
Hit / no hit for inhibition of CYP3A4 (CYP3A4; [5]): Hit | IC50 (CYP3A4; [6]): ~10 µM

Second part, the compound after the results:

IC50 (CYP3A4; [3]): > 10 µM
Compound: CC(=O)n1ccnc1 [1-Acetylimidazole]

IC50 (CYP3A4): > 10 µM
Compound: Cn1ccnc1 [1-Methylimidazole]

IC50 (CYP3A4; [3]): > 10 µM
Compound: C=Cn1ccnc1 [1-Vinylimidazole]

IC50 ([1]; pig): 308 µM
Compound: Cc1nccn1Cc1ccccc1 [1-benzyl-2-methylimidazole]

IC50 (CYP3A4; [3]): > 10 µM
Compound: O=C(n1ccnc1)n1ccnc1 [1′-1-Carbonylimidazole]

IC50 (CYP3A4; [3]): > 10 µM
Compound: Clc1ccccc1-c1nc2ccccc2[nH]1 [2-(2-Chlorophenyl) benzimidazole]

IC50 (CYP3A4): > 10 µM
Compound: CCCCc1nc(C=O)c(Cl)[nH]1 [2-Butyl-4-chloro-5-formylimidazole]

IC50 (CYP3A4): > 10 µM
Compound: CCc1ncc[nH]1 [2-Ethylimidazole]

IC50 (CYP3A4; [3]): > 10 µM
Compound: Cc1ncc[nH]1 [2-Methylimidazole]

IC50 ([1]; pig): 100 µM
Compound: c1ccc(-c2nc[nH]c2-c2ccccc2)cc1 [4,5-diphenylimidazole]

IC50 (CYP3A4; [3]): 0.8 µM | Hit / no hit for inhibition of CYP3A4 (CYP3A4; human, recombinant enzyme): Hit
Compound: CC(=O)c1ccc(-n2ccnc2)cc1 [4′-(Imidazol-1yl) acetophenome]

IC50 (CYP3A4; [3]): > 10 µM
Compound: c1ccc2[nH]cnc2c1 [Benzimidazole]

IC50 (CYP3A4; [3]): > 10 µM
Compound: CC1=N[C@H](C(=O)O)CCN1 [Ectoine]

IC50 (CYP3A4; [3]): > 10 µM
Compound: N=C(N)c1ccc(OCCCCCCOc2ccc(C(=N)N)cc2)cc1 [Hexamidine diisethionate]

IC50 (CYP3A4; [3]): > 10 µM
Compound: N[C@@H](Cc1c[nH]cn1)C(=O)O [Histidine]

IC50 (CYP3A4): > 10 µM
Compound: c1ccc(-c2n[nH]cc2-c2ccnc3ccccc23)nc1 [LY-364947]

IC50 (CYP3A4): 3 µM | Hit / no hit for inhibition of CYP3A4 (CYP3A4; human, recombinant enzyme): Hit
Compound: CC(C)(C(=O)c1cccnc1)c1cccnc1 [Metyrapone]

IC50 (CYP3A4): > 10 µM
Compound: NCCCn1ccnc1 [N-(3-Aminopropyl) imidazole]

IC50 (CYP3A4; [3]): > 10 µM
Compound: CC(=O)/C=C/C1=C(C)CCCC1(C)C [β-Ionone]
